Patent US20140148470A1, “PYRIMIDINE COMPOUNDS FOR TREATING HAIRLOSS” (Boehringer Ingelheim International GmbH, priority 2012, published 2014)
pIC50: −log10 of the molar value. Where two headings read alike, the source gives them in different places.

Experiments:
[1] = target: T1, human CRTH2 (Homo sapiens, UniProt Q9Y5Y4); assay: Measurement of Ca2+ mobilization in the human CRTH2-transfected L1.2 cell line; format: cell-based; settings: PGD2-induced Ca2+ mobilization, human CRTH2-transfected L1.2 cells; compounds as yielded by solid phase synthesis, purity about 40 to 90%; read-out: Activity class (IC50)
T1 construct: expressed in transfected cells; host or cells: L1.2 cells (pEAK expression vector, puromycin selection)
T1 sequence (Q9Y5Y4 1-395): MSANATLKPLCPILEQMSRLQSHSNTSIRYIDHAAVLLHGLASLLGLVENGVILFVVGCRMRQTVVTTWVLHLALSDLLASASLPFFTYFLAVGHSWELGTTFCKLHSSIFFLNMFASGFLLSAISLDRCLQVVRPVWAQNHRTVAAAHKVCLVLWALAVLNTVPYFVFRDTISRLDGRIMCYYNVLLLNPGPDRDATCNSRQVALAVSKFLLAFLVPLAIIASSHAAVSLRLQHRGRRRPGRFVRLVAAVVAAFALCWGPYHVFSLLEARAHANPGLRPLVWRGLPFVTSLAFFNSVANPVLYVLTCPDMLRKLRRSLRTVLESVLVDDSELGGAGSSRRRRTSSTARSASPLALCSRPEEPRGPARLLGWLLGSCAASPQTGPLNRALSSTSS
Source text: [Preparation of Human CRTH2-Transfected L1. 2 Cell Line]
Human CRTH2 cDNA was amplified from human eosinophil cDNA with gene specific primers containing restriction sites for cloning into pEAK vector (Edge Bio Systems). The human CRTH2 cDNA was cloned into the mammalian expression vector pEAK. This expression plasmid ([…]) was transfected into L1. 2 cells, at a cell density of 1×10^7 cells/[…], by using electroporation apparatus (Gene Pulser II, BioRad) at 250V/[…]. One day after the transfection, puromycin (1 ug/mi, Sigma) was added into the cell culture plates. Two weeks after the transfection, grown cells were picked up for further growth.
[Measurement of Ca^2+ Mobilization in the Human CRTH2-Transfected L1. 2 Cell Line]
Ca^2+ loading buffer was prepared by mixing […] of Fluo-3AM (2 mM in DMSO, final 1 uM, Molecular Probes) and 10 µl of pluronic F-127 (Molecular Probes) and diluting the resulting mixture in 10 ml of Ca^2+ assay buffer (20 mM HEPES pH 7.6, 0.1% BSA, 1 mM probenecid, Hanks' solution). The CRTH2 transfected cells which were prepared in Example 1 were washed with PBS, resuspended in Ca2+ loading buffer at […] cells/ml, and incubated for 60 min at room temperature. After incubation, cells were washed and resuspended in Ca^2+ assay buffer, then dispensed into transparent-bottom 96-well plates (# 3631, Costar) at 2×10^5 cells/well. Cells were incubated with various concentrations of test compound for 5 minutes at room temperature. The emitted […] fluorescence was measured on FDSS6000, a Ca^2+-measurement apparatus (Hamamatsu Photonics, Hamamatsu, Japan).
The data corresponds to the compounds as yielded by solid phase synthesis and thus to levels of purity of about 40 to 90%. For practical reasons, the compounds are grouped in four classes of activity as follows: IC50=A (< or =) 10 nM<B (< or =) 100 nM<C (< or =) 500 nM<D. The compounds of the present invention also show excellent selectivity, and potent activity in Assays 2,3 and 4 described above.

[2] = test system: explanted human hair follicles; settings: cited from earlier work
[3] = target: T2, CRTH2 (GPR44) (Mus musculus, UniProt Q9Z2J6); settings: topical to skin, cited from earlier work
T2 construct: host or cells: skin of wild-type mice, in vivo
T2 sequence (Q9Z2J6 1-382): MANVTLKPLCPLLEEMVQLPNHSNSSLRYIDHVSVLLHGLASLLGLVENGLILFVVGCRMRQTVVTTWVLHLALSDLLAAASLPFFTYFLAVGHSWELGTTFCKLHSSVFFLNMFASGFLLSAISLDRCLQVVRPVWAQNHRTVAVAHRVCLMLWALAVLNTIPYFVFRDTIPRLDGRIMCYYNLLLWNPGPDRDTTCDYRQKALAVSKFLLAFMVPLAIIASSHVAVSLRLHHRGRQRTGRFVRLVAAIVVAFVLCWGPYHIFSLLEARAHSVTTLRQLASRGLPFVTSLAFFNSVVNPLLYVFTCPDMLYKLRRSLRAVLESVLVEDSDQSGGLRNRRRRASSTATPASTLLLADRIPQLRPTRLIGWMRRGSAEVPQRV

| Structure (SMILES) | pIC50 [1] | also measured |
| --- | --- | --- |
| CCCCC[C@H](O)/C=C/[C@H]1C(=O)C[C@H](O)[C@@H]1C/C=C\CCCC(=O)O [PGD2, prostaglandin D2] | – | hair growth [2]: inhibited hair growth; hair growth ([3]; CRTH2 (GPR44) knockout mice): not; hair growth ([3]; wild-type mice): inhibited hair growth |
| CN(C)c1nc(Cc2ccc(NC(=O)c3ccc4ccccc4c3)cc2)ncc1CC(=O)O [Example 10] | > 8.00 | – |
| CN(C)c1nc(Cc2ccc(NC(=O)c3ccc4ccccc4c3)cc2)nc(Cl)c1CC(N)=O [Example 22] | 7.00 to 8.00 | – |

The next lines start with results.

| pIC50 [1] | Structure (SMILES) | also measured |
| --- | --- | --- |
| > 8.00 | CN(C)c1nc(Cc2ccc(NC(=O)c3ccc4ccccc4c3)cc2)nc(Cl)c1Cc1nnn[nH]1 [Example 21] | – |
| > 8.00 | O=C(O)Cc1c(Cl)nc(Cc2ccc(NC(=O)c3ccc4ccccc4c3)cc2)nc1Cl [Example 20] | – |
| > 8.00 | CN(C)c1nc(Cc2ccc(NC(=O)c3ccc(C(F)(F)F)cc3)cc2)nc(N(C)C)c1CC(=O)O [Example 14] | – |
| > 8.00 | CN(C)c1nc(Cc2ccc(NC(=O)c3ccc4ccccc4c3)cc2)nc(Cl)c1CC(=O)O [Example 1] | – |
